Test [1] addresses T1, Neuropeptide Y receptor type 1 (Homo sapiens, UniProt P25929).
T1 sequence (P25929 whole entry): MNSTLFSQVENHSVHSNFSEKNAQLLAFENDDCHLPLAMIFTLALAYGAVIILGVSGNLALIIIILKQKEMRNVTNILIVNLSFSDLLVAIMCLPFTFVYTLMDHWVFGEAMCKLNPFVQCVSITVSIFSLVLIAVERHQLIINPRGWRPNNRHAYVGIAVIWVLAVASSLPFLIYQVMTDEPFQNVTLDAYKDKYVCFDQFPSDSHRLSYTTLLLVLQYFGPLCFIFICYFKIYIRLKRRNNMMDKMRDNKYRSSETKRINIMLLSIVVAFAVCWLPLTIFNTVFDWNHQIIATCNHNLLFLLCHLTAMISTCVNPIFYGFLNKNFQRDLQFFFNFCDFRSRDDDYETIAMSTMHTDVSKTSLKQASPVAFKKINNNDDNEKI
The experiment in a line: Compound was evaluated for its inhibitory activity against human neuropeptide Y1 receptor expressing SK-N-MC cells. In kind it is cell-based.

The target in test [2] is T2, Neuropeptide Y receptor type 2 (Homo sapiens, UniProt P49146).
T2 sequence (P49146 whole entry): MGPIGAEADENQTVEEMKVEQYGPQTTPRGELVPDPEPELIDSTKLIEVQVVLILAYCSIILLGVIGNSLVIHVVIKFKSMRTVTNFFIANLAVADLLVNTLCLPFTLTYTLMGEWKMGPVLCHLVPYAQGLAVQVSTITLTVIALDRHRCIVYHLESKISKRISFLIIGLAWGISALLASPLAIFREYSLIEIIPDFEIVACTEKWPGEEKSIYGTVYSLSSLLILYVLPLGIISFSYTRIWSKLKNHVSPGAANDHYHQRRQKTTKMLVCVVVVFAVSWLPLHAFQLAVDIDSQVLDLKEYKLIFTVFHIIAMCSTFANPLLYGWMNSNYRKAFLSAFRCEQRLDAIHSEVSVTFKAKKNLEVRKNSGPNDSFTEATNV
The test can be described thus: Compound was evaluated for its inhibitory activity against human neuropeptide Y2 receptor expressing LN319 cells. In kind it is cell-based.

The species named for a further test is Rattus norvegicus. The test can be described thus: Compound was evaluated for its ability to inhibit electrically evoked rat vas deferens contractions. In kind it is functional.

The source of these data is ChEMBL document CHEMBL1126482, “Novel Y2-selective, reduced-size agonists of neuropeptide Y” (Bioorg Med Chem Lett, 1993).

Usually IC50 stands for the concentration that inhibits the measured activity by half. High values mean a need for much substance, low ones inhibition by little substance.

Square brackets hold non-standard residues; d marks the D form. Peptide text beside a SMILES is read from it. Cha = N[C@@H](CC1CCCCC1)C(=O)O

For the compound `CC[C@H](C)[C@H](NC(=O)[C@H](Cc1ccc(O)cc1)NC(=O)[C@H](Cc1c[nH]cn1)NC(=O)[C@H](CCCN=C(N)N)NC(C)=O)C(=O)N[C@@H](CC(N)=O)C(=O)N[C@@H](CC(C)C)C(=O)N[C@@H](CC1CCCCC1)C(=O)N[C@H](C(=O)N[C@@H](CCCN=C(N)N)C(=O)N[C@@H](CCC(N)=O)C(=O)N[C@@H](CCCN=C(N)N)C(=O)N[C@@H](Cc1ccc(O)cc1)C(=O)O)[C@@H](C)O` (Ac-RHYINL[Cha]TRQRY-OH), the figures for the IC50 in test [1] (sk-n-mc) and in test [2] were 0.039 µM and 0.005 µM, respectively.
Take `CC[C@H](C)[C@H](NC(=O)[C@H](Cc1ccc(O)cc1)NC(=O)[C@H](Cc1c[nH]cn1)NC(=O)[C@H](CCCN=C(N)N)NC(C)=O)C(=O)N[C@@H](CC(N)=O)C(=O)N[C@@H](CC1CCCCC1)C(=O)N[C@H](C(=O)N[C@H](C(=O)N[C@@H](CCCN=C(N)N)C(=O)N[C@@H](CCC(N)=O)C(=O)N[C@@H](CCCN=C(N)N)C(=O)N[C@@H](Cc1ccc(O)cc1)C(=O)O)[C@@H](C)O)[C@@H](C)CC` (Ac-RHYIN[Cha]ITRQRY-OH): the half-maximal inhibitory concentration (IC50) in test [1] (sk-n-mc) came to 44 µM; in test [2] it was 0.008 µM.
Turning to `CC[C@H](C)[C@H](NC(=O)[C@H](Cc1ccc(O)cc1)NC(=O)[C@H](Cc1c[nH]cn1)NC(=O)[C@H](CCCN=C(N)N)NC(C)=O)C(=O)N[C@@H](CC(N)=O)C(=O)N[C@@H](CC1CCCCC1)C(=O)N[C@@H](CC1CCCCC1)C(=O)N[C@H](C(=O)N[C@@H](CCCN=C(N)N)C(=O)N[C@@H](CCC(N)=O)C(=O)N[C@@H](CCCN=C(N)N)C(=O)N[C@@H](Cc1ccc(O)cc1)C(=O)O)[C@@H](C)O` (Ac-RHYIN[Cha][Cha]TRQRY-OH), the IC50 came to 26 µM in test [1] (sk-n-mc) and 0.003 µM in test [2].
With Ac-RHYINLITRQRY-OH, the IC50 in test [1] worked out at 35 µM; in the test filed under Rattus norvegicus it was 4.5 µM.
